Results from PubChem BioAssay AID2060621 (Molecular Pharmacology Branch, DTP, NCI, 2025).
Values joined by “and” are separate entries in the source; they are usually repeats but may differ in a detail not shown here. Equal entries are not always repeated.

Tested on: 324938-238-R-J1-PDC complex spheroids viability
Assay: Anticancer human tumor 324938-238-R-J1-PDC patient-derived bladder carcinoma cell line growth inhibition [CLK]
Conditions: for viability, T/C: stronger effect = lower value
Outline: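 Multi-cell-type spheroids combined patient-derived tumor cells with HUVEC endothelial cells and human mesenchymal stem cells. Paired agents were dosed in half-log steps down from about clinical Cmax, or from 10 microM where Cmax was unknown.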

[1] = curve of first compound, second compound 0.0316 µM
[2] = curve of first compound, second compound 0.1 µM
[3] = curve of first compound, second compound 0.316 µM
[4] = curve of first compound, second compound 1 µM
[5] = curve of first compound, second compound 3.16 µM
[6] = curve of first compound, second compound 10 µM
[7] = second compound 0.0316 µM, first compound 0.0316 µM
[8] = second compound 0.0316 µM, first compound 0.1 µM
[9] = second compound 0.0316 µM, first compound 0.316 µM
[10] = second compound 0.0316 µM, first compound 1 µM
[11] = second compound 0.0316 µM, first compound 3.16 µM
[12] = second compound 0.0316 µM, first compound 10 µM
[13] = second compound 0.1 µM, first compound 0.0316 µM
[14] = second compound 0.1 µM, first compound 0.1 µM
[15] = second compound 0.1 µM, first compound 0.316 µM
[16] = second compound 0.1 µM, first compound 1 µM
[17] = second compound 0.1 µM, first compound 3.16 µM
[18] = second compound 0.1 µM, first compound 10 µM
[19] = second compound 0.316 µM, first compound 0.0316 µM
[20] = second compound 0.316 µM, first compound 0.1 µM
[21] = second compound 0.316 µM, first compound 0.316 µM
[22] = second compound 0.316 µM, first compound 1 µM
[23] = second compound 0.316 µM, first compound 3.16 µM
[24] = second compound 0.316 µM, first compound 10 µM
[25] = second compound 1 µM, first compound 0.0316 µM
[26] = second compound 1 µM, first compound 0.1 µM
[27] = second compound 1 µM, first compound 0.316 µM
[28] = second compound 1 µM, first compound 1 µM
[29] = second compound 1 µM, first compound 3.16 µM
[30] = second compound 1 µM, first compound 10 µM
[31] = second compound 3.16 µM, first compound 0.0316 µM
[32] = second compound 3.16 µM, first compound 0.1 µM
[33] = second compound 3.16 µM, first compound 0.316 µM
[34] = second compound 3.16 µM, first compound 1 µM
[35] = second compound 3.16 µM, first compound 3.16 µM
[36] = second compound 3.16 µM, first compound 10 µM
[37] = second compound 10 µM, first compound 0.0316 µM
[38] = second compound 10 µM, first compound 0.1 µM
[39] = second compound 10 µM, first compound 0.316 µM
[40] = second compound 10 µM, first compound 1 µM
[41] = second compound 10 µM, first compound 3.16 µM
[42] = second compound 10 µM, first compound 10 µM
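Note: viability read after seven days of drug exposure.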
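Throughout, for viability, T/C: 100% = DMSO vehicle control wells.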

C=CC(=O)N1CCN(c2nc(=O)n(-c3c(C)ccnc3C(C)C)c3nc(-c4c(O)cccc4F)c(F)cc23)C(C)C1 (stereo not drawn) + CN1CCN(c2cc(C(=O)Nc3cc4cc(-c5cnn(C)c5)ccc4cn3)ccn2)CC1
IC50 [1]: > 10000 nM
IC50 [2]: > 10000 nM
IC50 [3]: < 31.6 nM
IC50 [4]: < 31.6 nM
IC50 [5]: < 31.6 nM
IC50 [6]: < 31.6 nM
viability, T/C [7]: 79.2%
viability, T/C [8]: 77.8%
viability, T/C [9]: 84.5%
viability, T/C [10]: 103%
viability, T/C [11]: 87.4%
viability, T/C [12]: 82.7%
viability, T/C [13]: 59.6%
viability, T/C [14]: 61.4%
viability, T/C [15]: 63.2%
viability, T/C [16]: 64.8%
viability, T/C [17]: 66.6%
viability, T/C [18]: 59.9%
viability, T/C [19]: 27.4%
viability, T/C [20]: 25%
viability, T/C [21]: 27.4%
viability, T/C [22]: 28.9%
viability, T/C [23]: 35.5%
viability, T/C [24]: 27.8%
viability, T/C [25]: 1.25%
viability, T/C [26]: 1.85%
viability, T/C [27]: 1.99%
viability, T/C [28]: 1.7%
viability, T/C [29]: 1.08%
viability, T/C [30]: 0.78%
viability, T/C [31]: 0.13%
viability, T/C [32]: 0.25%
viability, T/C [33]: 0.19%
viability, T/C [34]: 0.16%
viability, T/C [35]: 0.12%
viability, T/C [36]: 0.25%
viability, T/C [37]: 0.2%
viability, T/C [38]: 0.19%
viability, T/C [39]: 0.18%
viability, T/C [40]: 0.15%
viability, T/C [41]: 0.16%
viability, T/C [42]: 0.33%

O=c1[nH]cc(F)c(=O)[nH]1
viability, T/C (compound 0.0316 µM): 83.8% and 80.7%
viability, T/C (compound 0.1 µM): 66.9% and 79.9%
viability, T/C (compound 0.316 µM): 24.9% and 37%
viability, T/C (compound 1 µM): 19.4% and 26%
viability, T/C (compound 3.16 µM): 16.1% and 20.8%
viability, T/C (compound 10 µM): 16.1% and 20.9%
IC50 (curve of compound): 159 nM and 223 nM

C#Cc1c(F)ccc2cc(O)cc(-c3ncc4c(N5CC6CCC(C5)N6)nc(OCC56CCCN5CC(F)C6)nc4c3F)c12 (stereo not drawn) + CNC(=O)c1ccc(Nc2nc(OC3CCCC3)c3c(-c4ccc5nc(C)oc5c4)c[nH]c3n2)c(OC)c1
IC50 [1]: 4700 nM
IC50 [2]: < 31.6 nM
IC50 [3]: < 31.6 nM
IC50 [4]: < 31.6 nM
IC50 [5]: < 31.6 nM
IC50 [6]: < 31.6 nM
viability, T/C [7]: 73.7%
viability, T/C [8]: 87.6%
viability, T/C [9]: 71.8%
viability, T/C [10]: 69.6%
viability, T/C [11]: 57.8%
viability, T/C [12]: 35.7%
viability, T/C [13]: 29.6%
viability, T/C [14]: 29.6%
viability, T/C [15]: 21.5%
viability, T/C [16]: 22.8%
viability, T/C [17]: 20.5%
viability, T/C [18]: 18.6%
viability, T/C [19]: 20.1%
viability, T/C [20]: 18.9%
viability, T/C [21]: 14.5%
viability, T/C [22]: 16.9%
viability, T/C [23]: 12.7%
viability, T/C [24]: 14.8%
viability, T/C [25]: 14.8%
viability, T/C [26]: 14.9%
viability, T/C [27]: 13.8%
viability, T/C [28]: 15.1%
viability, T/C [29]: 14.8%
viability, T/C [30]: 15.6%
viability, T/C [31]: 13.5%
viability, T/C [32]: 16.4%
viability, T/C [33]: 14.8%
viability, T/C [34]: 16.8%
viability, T/C [35]: 12.4%
viability, T/C [36]: 12.4%
viability, T/C [37]: 15.9%
viability, T/C [38]: 18%
viability, T/C [39]: 16.2%
viability, T/C [40]: 16.8%
viability, T/C [41]: 16.2%
viability, T/C [42]: 11.5%

Nc1ccccc1NC(=O)c1ccc(CNC(=O)OCc2cccnc2)cc1 + CN1CCN(c2cc(C(=O)Nc3cc4cc(-c5cnn(C)c5)ccc4cn3)ccn2)CC1
IC50 [1]: 1200 nM
IC50 [2]: 173 nM
IC50 [3]: < 31.6 nM
IC50 [4]: < 31.6 nM
IC50 [5]: < 31.6 nM
IC50 [6]: < 31.6 nM
viability, T/C [7]: 80.2%
viability, T/C [8]: 88.1%
viability, T/C [9]: 70.5%
viability, T/C [10]: 52.5%
viability, T/C [11]: 32.2%
viability, T/C [12]: 14.2%
viability, T/C [13]: 58.5%
viability, T/C [14]: 50%
viability, T/C [15]: 44.8%
viability, T/C [16]: 39.6%
viability, T/C [17]: 30.6%
viability, T/C [18]: 7.44%
viability, T/C [19]: 21.6%
viability, T/C [20]: 26%
viability, T/C [21]: 20.6%
viability, T/C [22]: 21.1%
viability, T/C [23]: 24.1%
viability, T/C [24]: 0.19%
viability, T/C [25]: 1.99%
viability, T/C [26]: 3.65%
viability, T/C [27]: 4%
viability, T/C [28]: 2.6%
viability, T/C [29]: 0.16%
viability, T/C [30]: 0.13%
viability, T/C [31]: 0.13%
viability, T/C [32]: 0.14%
viability, T/C [33]: 0.15%
viability, T/C [34]: 0.1%
viability, T/C [35]: 0.1%
viability, T/C [36]: 0.16%
viability, T/C [37]: 0.06%
viability, T/C [38]: 0.13%
viability, T/C [39]: 0.14%
viability, T/C [40]: 0.13%
viability, T/C [41]: 0.18%
viability, T/C [42]: 0.2%
